# Data as given in ChEMBL document CHEMBL1127213, “Design of potent K+ channel openers by pharmacophore model” (Bioorg Med Chem Lett, 1993).
# pEC50: −log10 of the molar value.
# Columns and labels:
# Rattus norvegicus [1] = species on record: Rattus norvegicus; experiment: Percent intrinsic activity was measured in rat aorta; assay type: functional
# Rattus norvegicus [2] = species on record: Rattus norvegicus; experiment: Negative logarithm of the molar concentration of compound required to relax rat aorta precontracted with 30 mM KCl by 50%; assay type: functional
SMILES,pEC50 (Rattus norvegicus [2]),IA (Rattus norvegicus [1]) [%]
C/N=C(/S)C1=CC(C)(C)Oc2ccc(C#N)cc21,,89
CC(C)(C)/N=C(/NC#N)Nc1cccnc1,7.04,88
CC(N/C(=N\C#N)Nc1ccncc1)C(C)(C)C (stereo not given) [PINACIDIL ANHYDROUS],6.14,91.9
CC1(C)Oc2ccc(C#N)cc2[C@@H](N2CCCC2=O)[C@@H]1O [CROMAKALIM],,74.7

# More lines, main results first:
pEC50 (Rattus norvegicus [2]),SMILES,IA (Rattus norvegicus [1]) [%]
6.47,C/N=C(/NC#N)C1=CC(C)(C)Oc2ccc(C#N)cc21,73
6.58,CNC(=O)C1=CC(C)(C)Oc2ccc(C#N)cc21,66.6
